How the values were obtained:
[1] = In vitro liver microsomal stability assay; conditions: human liver microsomes 1 mg per mL, 1 μM, 37° C., vs non-isotopically enriched drug
Method: Test compounds were prepared as solutions in 20% acetonitrile-water and added to the assay mixture (final assay concentration 1 μM) and incubated at 37° C. Final concentration of acetonitrile in the assay should be <1%. Aliquots (50 μL) were taken out at times 0, 15, 30, 45, and 60 min, and diluted with ice cold acetonitrile (200 μL) to stop the reactions. Samples were centrifuged at 12,000 RPM for 10 min to precipitate proteins. Supernatants were transferred to micro centrifuge tubes and stored for LC/MS/MS analysis of the degradation half-life of the test compounds.

[2] = biological target: cytochrome P450 CYP2D6 (Homo sapiens, UniProt P10635); conditions: cited from earlier work
cytochrome P450 CYP2D6, sequence (P10635 whole entry): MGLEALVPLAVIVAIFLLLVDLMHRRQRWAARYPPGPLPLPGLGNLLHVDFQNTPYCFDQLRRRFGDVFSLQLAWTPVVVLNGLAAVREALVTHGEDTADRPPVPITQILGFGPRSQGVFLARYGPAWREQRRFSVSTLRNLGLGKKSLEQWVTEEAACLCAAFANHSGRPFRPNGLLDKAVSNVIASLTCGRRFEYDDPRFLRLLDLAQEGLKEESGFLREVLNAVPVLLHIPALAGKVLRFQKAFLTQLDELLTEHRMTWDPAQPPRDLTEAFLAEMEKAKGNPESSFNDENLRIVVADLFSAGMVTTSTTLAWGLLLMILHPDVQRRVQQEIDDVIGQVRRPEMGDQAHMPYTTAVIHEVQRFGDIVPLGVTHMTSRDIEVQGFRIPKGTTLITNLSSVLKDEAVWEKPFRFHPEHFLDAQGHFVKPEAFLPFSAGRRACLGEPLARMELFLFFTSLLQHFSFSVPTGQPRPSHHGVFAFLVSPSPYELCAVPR

Row | Structure (SMILES) | % Increase of HLM degradation half-life ([1]; column 0%-5%) | inhibition of cytochrome P450 CYP2D6 [2] | % Increase of HLM degradation half-life ([1]; column 5-15%)
1 | CN1CCN(C(c2ccccc2)c2ccccc2)CC1 [Example 1, 1-benzhydryl-4-methylpiperazine] | + (0%-5%) | inhibit | 
2 | [2H]C([2H])([2H])N1CCN(C(c2ccccc2)c2ccccc2)CC1 [Example 2, d3-1-Benzhydryl-4-methylpiperazine] |  |  | + (5-15%)

Source: patent US20090176792A1, “SUBSTITUTED DIBENZHYDRYLPIPERAZINES” (AUSPEX PHARMACEUTICALS, INC., priority 2008, published 2009)
